In the kinase profiling compilation of Christmann-Franck et al. (2016):
“And” between values parts separate entries of the source, which are not always exact repeats. Identical values can stand only once.

What was measured:
Experiment in all cases: KINOMEscan competition binding
Details in all cases: compound 10.0 µM
RPS6KA3 KD1 (human) = RPS6KA3 KD1 (human) (UniProt P51812)
LYN (human) = LYN (human) (UniProt P07948)
PRKD3 (human) = PRKD3 (human) (UniProt O94806)
STK11 (human) = STK11 (human) (UniProt Q15831)
DCLK1 (human) = DCLK1 (human) (UniProt O15075)
[1] = molecular target: JAK1 JH1 catalytic (human) (UniProt P23458)
MAP3K7 (human) = MAP3K7 (human) (UniProt O43318)
MAP3K7 (human), sequence (O43318 whole entry, looked up): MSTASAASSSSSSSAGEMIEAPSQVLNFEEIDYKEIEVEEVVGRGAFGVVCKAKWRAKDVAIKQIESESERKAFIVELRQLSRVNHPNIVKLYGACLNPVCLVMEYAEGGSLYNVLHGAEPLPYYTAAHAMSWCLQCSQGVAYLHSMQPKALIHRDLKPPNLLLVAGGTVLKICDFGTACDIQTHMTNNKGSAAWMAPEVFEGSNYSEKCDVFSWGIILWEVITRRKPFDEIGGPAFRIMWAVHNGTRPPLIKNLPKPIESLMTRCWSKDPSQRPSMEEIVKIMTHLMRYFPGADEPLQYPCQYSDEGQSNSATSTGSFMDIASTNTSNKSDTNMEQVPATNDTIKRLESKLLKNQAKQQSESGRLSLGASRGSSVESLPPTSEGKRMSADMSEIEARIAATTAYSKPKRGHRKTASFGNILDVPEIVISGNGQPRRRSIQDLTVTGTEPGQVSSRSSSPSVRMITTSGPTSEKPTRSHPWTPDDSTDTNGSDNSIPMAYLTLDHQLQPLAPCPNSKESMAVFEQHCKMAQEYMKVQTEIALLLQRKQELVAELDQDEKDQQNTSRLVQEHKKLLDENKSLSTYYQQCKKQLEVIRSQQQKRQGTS

BRSK2 (human) = BRSK2 (human) (UniProt Q8IWQ3)
CDK7 (human) = CDK7 (human) (UniProt P50613)
BRSK1 (human) = BRSK1 (human) (UniProt Q8TDC3)
RPS6KA5 KD1 (human) = RPS6KA5 KD1 (human) (UniProt O75582)
STK4 (human) = STK4 (human) (UniProt Q13043)
NEK2 (human) = NEK2 (human) (UniProt P51955)
MARK3 (human) = MARK3 (human) (UniProt P27448)
[2] = molecular target: TYK2 JH2 pseudokinase (human) (UniProt P29597)
FLT3 (human) = FLT3 (human) (UniProt P36888)
CDK14 (human) = CDK14 (human) (UniProt O94921)
CDK14 (human), sequence (O94921 whole entry, looked up): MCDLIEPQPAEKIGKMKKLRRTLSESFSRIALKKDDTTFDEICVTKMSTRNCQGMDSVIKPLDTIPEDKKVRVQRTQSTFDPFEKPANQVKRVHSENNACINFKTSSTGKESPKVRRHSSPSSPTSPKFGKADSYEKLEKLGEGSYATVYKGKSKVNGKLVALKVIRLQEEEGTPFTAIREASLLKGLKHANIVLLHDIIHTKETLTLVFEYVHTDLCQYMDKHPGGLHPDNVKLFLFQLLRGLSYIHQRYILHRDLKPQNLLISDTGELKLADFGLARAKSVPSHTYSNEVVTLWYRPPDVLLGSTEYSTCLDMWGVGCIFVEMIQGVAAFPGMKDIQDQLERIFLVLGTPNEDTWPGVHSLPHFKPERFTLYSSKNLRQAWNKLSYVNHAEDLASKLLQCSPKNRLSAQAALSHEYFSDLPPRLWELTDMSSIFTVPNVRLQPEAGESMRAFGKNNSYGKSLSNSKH

[3] = tested on: FLT3 (human), P36888 [ITD]
FGFR2 (human) = FGFR2 (human) (UniProt P21802)
TSSK1B (human) = TSSK1B (human) (UniProt Q9BXA7)
CDK15 (human) = CDK15 (human) (UniProt Q96Q40)
BMPR1A (human) = BMPR1A (human) (UniProt P36894)
CAMK1D (human) = CAMK1D (human) (UniProt Q8IU85)
NTRK3 (human) = NTRK3 (human) (UniProt Q16288)
MAPK9 (human) = MAPK9 (human) (UniProt P45984)
MAPK9 (human), sequence (P45984 whole entry, looked up): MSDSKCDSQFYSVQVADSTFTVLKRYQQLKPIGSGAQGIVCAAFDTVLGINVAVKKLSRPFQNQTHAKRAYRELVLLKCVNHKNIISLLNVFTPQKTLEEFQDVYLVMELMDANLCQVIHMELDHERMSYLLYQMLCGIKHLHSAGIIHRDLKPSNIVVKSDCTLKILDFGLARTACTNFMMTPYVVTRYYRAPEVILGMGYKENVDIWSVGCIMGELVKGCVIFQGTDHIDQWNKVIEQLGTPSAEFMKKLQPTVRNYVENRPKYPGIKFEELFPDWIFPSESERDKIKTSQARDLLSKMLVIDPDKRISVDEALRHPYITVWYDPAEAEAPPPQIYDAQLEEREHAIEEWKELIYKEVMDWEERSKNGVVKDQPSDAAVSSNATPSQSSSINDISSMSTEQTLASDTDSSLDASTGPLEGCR

CDK9 (human) = CDK9 (human) (UniProt P50750)
LATS1 (human) = LATS1 (human) (UniProt O95835)
GSK3B (human) = GSK3B (human) (UniProt P49841)
BMPR1B (human) = BMPR1B (human) (UniProt O00238)
PLK1 (human) = PLK1 (human) (UniProt P53350)
STK16 (human) = STK16 (human) (UniProt O75716)
IKBKE (human) = IKBKE (human) (UniProt Q14164)
IKBKE (human), sequence (Q14164 whole entry, looked up): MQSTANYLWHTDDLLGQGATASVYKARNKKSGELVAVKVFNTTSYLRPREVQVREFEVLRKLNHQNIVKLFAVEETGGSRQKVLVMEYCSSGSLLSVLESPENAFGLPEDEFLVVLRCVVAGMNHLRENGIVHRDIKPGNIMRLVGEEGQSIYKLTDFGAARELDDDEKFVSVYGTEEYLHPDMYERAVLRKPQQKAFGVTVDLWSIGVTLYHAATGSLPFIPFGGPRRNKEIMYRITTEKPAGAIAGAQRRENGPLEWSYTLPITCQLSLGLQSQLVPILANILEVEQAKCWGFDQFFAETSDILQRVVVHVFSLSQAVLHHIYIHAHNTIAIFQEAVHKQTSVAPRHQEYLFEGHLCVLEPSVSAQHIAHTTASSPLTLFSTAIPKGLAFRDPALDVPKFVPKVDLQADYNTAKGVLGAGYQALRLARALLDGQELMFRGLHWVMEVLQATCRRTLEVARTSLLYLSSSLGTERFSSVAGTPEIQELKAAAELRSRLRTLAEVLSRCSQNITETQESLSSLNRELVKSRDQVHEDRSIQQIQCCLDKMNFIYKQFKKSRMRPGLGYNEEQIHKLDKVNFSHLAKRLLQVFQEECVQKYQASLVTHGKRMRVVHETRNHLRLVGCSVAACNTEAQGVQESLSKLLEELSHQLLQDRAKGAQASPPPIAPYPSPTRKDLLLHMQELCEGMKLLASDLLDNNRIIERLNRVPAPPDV

BLK (human) = BLK (human) (UniProt P51451)
YES1 (human) = YES1 (human) (UniProt P07947)
MAP4K1 (human) = MAP4K1 (human) (UniProt Q92918)
LIMK1 (human) = LIMK1 (human) (UniProt P53667)
LIMK1 (human), sequence (P53667 whole entry, looked up): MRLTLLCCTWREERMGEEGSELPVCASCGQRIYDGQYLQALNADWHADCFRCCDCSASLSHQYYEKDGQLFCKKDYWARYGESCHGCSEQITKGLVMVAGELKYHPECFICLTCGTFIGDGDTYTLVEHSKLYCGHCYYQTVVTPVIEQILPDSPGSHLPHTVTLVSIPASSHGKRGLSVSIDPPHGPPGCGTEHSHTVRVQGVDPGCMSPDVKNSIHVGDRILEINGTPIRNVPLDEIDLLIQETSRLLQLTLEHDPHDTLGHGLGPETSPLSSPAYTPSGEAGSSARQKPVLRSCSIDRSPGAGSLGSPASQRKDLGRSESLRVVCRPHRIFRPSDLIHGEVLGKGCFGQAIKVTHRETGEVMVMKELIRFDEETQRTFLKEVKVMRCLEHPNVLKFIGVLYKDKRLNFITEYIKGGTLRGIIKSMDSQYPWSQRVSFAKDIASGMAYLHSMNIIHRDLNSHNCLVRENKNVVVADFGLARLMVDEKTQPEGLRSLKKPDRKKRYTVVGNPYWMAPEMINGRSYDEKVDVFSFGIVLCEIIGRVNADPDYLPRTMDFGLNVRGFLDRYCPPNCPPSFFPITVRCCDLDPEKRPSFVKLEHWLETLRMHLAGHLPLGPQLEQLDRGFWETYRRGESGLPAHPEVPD

MAP3K9 (human) = MAP3K9 (human) (UniProt P80192)
PIK3CB (human) = PIK3CB (human) (UniProt P42338)
PIK3CB (human), sequence (P42338 whole entry, looked up): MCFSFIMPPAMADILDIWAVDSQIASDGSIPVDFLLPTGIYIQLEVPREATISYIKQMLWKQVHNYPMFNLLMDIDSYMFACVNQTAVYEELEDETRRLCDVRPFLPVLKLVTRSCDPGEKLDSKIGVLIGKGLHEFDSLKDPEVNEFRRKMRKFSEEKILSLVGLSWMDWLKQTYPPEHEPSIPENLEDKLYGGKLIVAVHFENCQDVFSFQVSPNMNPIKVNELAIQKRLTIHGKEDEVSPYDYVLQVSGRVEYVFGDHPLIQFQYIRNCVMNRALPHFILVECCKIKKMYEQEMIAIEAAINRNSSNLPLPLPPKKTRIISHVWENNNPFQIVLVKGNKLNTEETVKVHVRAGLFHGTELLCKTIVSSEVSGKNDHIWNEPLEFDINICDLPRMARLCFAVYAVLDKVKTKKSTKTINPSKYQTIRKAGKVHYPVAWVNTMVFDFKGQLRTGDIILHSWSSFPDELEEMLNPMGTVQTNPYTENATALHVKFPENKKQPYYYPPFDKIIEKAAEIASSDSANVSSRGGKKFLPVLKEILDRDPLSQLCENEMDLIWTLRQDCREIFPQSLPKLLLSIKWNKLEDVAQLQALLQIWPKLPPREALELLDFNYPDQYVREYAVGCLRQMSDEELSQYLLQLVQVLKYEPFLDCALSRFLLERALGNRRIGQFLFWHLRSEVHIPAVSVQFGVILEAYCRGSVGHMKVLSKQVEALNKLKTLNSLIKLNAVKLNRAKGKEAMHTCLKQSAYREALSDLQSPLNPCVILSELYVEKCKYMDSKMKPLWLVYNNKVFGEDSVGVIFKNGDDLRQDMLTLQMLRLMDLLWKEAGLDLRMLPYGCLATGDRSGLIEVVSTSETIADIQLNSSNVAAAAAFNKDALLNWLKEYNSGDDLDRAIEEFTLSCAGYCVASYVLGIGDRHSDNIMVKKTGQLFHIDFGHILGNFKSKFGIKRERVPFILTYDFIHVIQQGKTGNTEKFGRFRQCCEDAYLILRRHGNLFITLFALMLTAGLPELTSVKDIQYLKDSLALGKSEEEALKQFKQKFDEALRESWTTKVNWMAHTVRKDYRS

CDK5 (human) = CDK5 (human) (UniProt Q00535)
BMPR2 (human) = BMPR2 (human) (UniProt Q13873)
BMPR2 (human), sequence (Q13873 whole entry, looked up): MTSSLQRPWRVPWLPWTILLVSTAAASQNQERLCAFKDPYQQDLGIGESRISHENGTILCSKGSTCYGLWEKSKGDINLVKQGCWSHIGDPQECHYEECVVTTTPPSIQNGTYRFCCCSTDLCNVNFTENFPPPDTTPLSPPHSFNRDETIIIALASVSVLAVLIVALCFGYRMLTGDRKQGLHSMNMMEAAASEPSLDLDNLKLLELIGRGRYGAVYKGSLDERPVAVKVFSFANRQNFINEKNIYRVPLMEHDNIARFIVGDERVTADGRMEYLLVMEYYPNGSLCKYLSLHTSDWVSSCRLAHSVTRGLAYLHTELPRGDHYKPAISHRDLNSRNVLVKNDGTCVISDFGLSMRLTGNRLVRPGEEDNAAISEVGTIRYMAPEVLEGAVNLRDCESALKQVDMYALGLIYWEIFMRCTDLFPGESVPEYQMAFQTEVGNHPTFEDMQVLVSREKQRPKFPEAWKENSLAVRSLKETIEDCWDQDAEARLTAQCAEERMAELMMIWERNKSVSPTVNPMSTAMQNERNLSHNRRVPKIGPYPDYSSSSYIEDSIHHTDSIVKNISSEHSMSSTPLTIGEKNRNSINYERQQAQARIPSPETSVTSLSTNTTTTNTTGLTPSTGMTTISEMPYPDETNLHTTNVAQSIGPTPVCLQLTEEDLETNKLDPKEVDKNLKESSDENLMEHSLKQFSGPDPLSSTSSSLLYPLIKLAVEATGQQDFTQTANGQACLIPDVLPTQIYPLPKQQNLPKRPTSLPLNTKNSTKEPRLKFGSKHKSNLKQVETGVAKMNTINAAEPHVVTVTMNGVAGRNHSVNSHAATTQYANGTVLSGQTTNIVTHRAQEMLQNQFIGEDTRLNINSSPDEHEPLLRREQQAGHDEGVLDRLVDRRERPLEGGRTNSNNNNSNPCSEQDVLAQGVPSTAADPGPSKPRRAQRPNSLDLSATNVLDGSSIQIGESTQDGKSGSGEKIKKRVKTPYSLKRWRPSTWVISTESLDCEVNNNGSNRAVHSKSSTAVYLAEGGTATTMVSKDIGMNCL

| Structure (SMILES) | kinase still bound, per cent of control (RPS6KA3 KD1 (human)) | kinase still bound, per cent of control (LYN (human)) | kinase still bound, per cent of control (PRKD3 (human)) | kinase still bound, per cent of control (STK11 (human)) | kinase still bound, per cent of control (DCLK1 (human)) | kinase still bound, per cent of control [1] | kinase still bound, per cent of control (MAP3K7 (human)) | kinase still bound, per cent of control (BRSK2 (human)) | kinase still bound, per cent of control (CDK7 (human)) | kinase still bound, per cent of control (BRSK1 (human)) | kinase still bound, per cent of control (RPS6KA5 KD1 (human)) | kinase still bound, per cent of control (STK4 (human)) | kinase still bound, per cent of control (NEK2 (human)) | kinase still bound, per cent of control (MARK3 (human)) | kinase still bound, per cent of control [2] | kinase still bound, per cent of control (FLT3 (human)) | kinase still bound, per cent of control (CDK14 (human)) | kinase still bound, per cent of control [3] | kinase still bound, per cent of control (FGFR2 (human)) | kinase still bound, per cent of control (TSSK1B (human)) | further results |
| --- | --- | --- | --- | --- | --- | --- | --- | --- | --- | --- | --- | --- | --- | --- | --- | --- | --- | --- | --- | --- | --- |
| O=C(NC1CC1)c1cccc(-c2ccc3c(NC(=O)C4CC4)n[nH]c3c2)c1 | 86% | 83% | 100% | 45% | 96% | 100% | 56% | 74% | 18% | 64% | 100% | 76% | 80% | 75% | 32% | 63% | 46% | 30% | 100% | 69% | kinase still bound, per cent of control (CDK15 (human)): 84%; kinase still bound, per cent of control (BMPR1A (human)): 76%; kinase still bound, per cent of control (CAMK1D (human)): 100%; kinase still bound, per cent of control (NTRK3 (human)): 44%; kinase still bound, per cent of control (MAPK9 (human)): 50%; kinase still bound, per cent of control (CDK9 (human)): 93%; kinase still bound, per cent of control (LATS1 (human)): 61%; kinase still bound, per cent of control (GSK3B (human)): 97%; kinase still bound, per cent of control (BMPR1B (human)): 91%; kinase still bound, per cent of control (PLK1 (human)): 78%; kinase still bound, per cent of control (STK16 (human)): 3%; kinase still bound, per cent of control (IKBKE (human)): 100%; kinase still bound, per cent of control (BLK (human)): 100%; kinase still bound, per cent of control (YES1 (human)): 92%; kinase still bound, per cent of control (MAP4K1 (human)): 68%; kinase still bound, per cent of control (LIMK1 (human)): 100%; kinase still bound, per cent of control (MAP3K9 (human)): 66%; kinase still bound, per cent of control (PIK3CB (human)): 100%; kinase still bound, per cent of control (CDK5 (human)): 60%; kinase still bound, per cent of control (BMPR2 (human)): 91% |
| CCN1CCN(Cc2ccc(Nc3ncc4c(n3)N(C)c3ccccc3C(=O)N4C)cc2C(F)(F)F)CC1 | 28% | 61% | 8% | 89% | 4.4% | 93% | 17% | 42% | 4% | 41% | 100% | 72% | 100% | 11% | 13% | 100% | 100% | 19% | 50% | 49% | kinase still bound, per cent of control (CDK15 (human)): 76%; kinase still bound, per cent of control (BMPR1A (human)): 8.2%; kinase still bound, per cent of control (CAMK1D (human)): 76%; kinase still bound, per cent of control (NTRK3 (human)): 100%; kinase still bound, per cent of control (MAPK9 (human)): 57%; kinase still bound, per cent of control (CDK9 (human)): 100%; kinase still bound, per cent of control (LATS1 (human)): 100%; kinase still bound, per cent of control (GSK3B (human)): 47%; kinase still bound, per cent of control (BMPR1B (human)): 53%; kinase still bound, per cent of control (PLK1 (human)): 27%; kinase still bound, per cent of control (STK16 (human)): 15%; kinase still bound, per cent of control (IKBKE (human)): 73%; kinase still bound, per cent of control (BLK (human)): 8.3%; kinase still bound, per cent of control (YES1 (human)): 6.6%; kinase still bound, per cent of control (MAP4K1 (human)): 18%; kinase still bound, per cent of control (LIMK1 (human)): 52%; kinase still bound, per cent of control (MAP3K9 (human)): 58%; kinase still bound, per cent of control (PIK3CB (human)): 68%; kinase still bound, per cent of control (CDK5 (human)): 84%; kinase still bound, per cent of control (BMPR2 (human)): 91% |
| O=C(NOC[C@H](O)CO)c1ccc(F)c(F)c1Nc1ccc(I)cc1F | 100% | 72% | 70% | 83% | 100% | 78% | 75% | 100% | 83% | 100% | 87% | 100% | 70% | 91% | 100% | 82% and 80% | 100% | 100% | 100% | 100% | kinase still bound, per cent of control (CDK15 (human)): 78%; kinase still bound, per cent of control (BMPR1A (human)): 100%; kinase still bound, per cent of control (CAMK1D (human)): 89%; kinase still bound, per cent of control (NTRK3 (human)): 93%; kinase still bound, per cent of control (MAPK9 (human)): 88%; kinase still bound, per cent of control (CDK9 (human)): 76%; kinase still bound, per cent of control (LATS1 (human)): 100%; kinase still bound, per cent of control (GSK3B (human)): 68%; kinase still bound, per cent of control (BMPR1B (human)): 81%; kinase still bound, per cent of control (PLK1 (human)): 72%; kinase still bound, per cent of control (STK16 (human)): 99%; kinase still bound, per cent of control (IKBKE (human)): 100%; kinase still bound, per cent of control (BLK (human)): 83%; kinase still bound, per cent of control (YES1 (human)): 73%; kinase still bound, per cent of control (MAP4K1 (human)): 77%; kinase still bound, per cent of control (LIMK1 (human)): 68%; kinase still bound, per cent of control (MAP3K9 (human)): 95%; kinase still bound, per cent of control (PIK3CB (human)): 100%; kinase still bound, per cent of control (CDK5 (human)): 100%; kinase still bound, per cent of control (BMPR2 (human)): 92% |
